This test concerns patients with Meniere's disease and endolymphatic hydrops associated diseases. As to the kind of experiment: Clinical course of vertigo, aural fullness, tinnitus and hearing in clinical cases. Type of test: in vivo, patient. An excerpt: Therapeutic method of our invention is always performed after general examinations and standard laboratory examinations, such as blood pressure, plasma electrolytes, and urine osmolality. After consideration of body weight, age, sex, and life style, we directed the patients to take adequate water (see below) every day in combination with short-term application with isosorbite®. During the initial stage of the water intake method, recommended volume of water intake for adult male, weighing 60 kg, is calculated as 1.8-2.1 l per day according to the following formula (F 1). […] They seem to be nervous and live under the very strong psychological pressure.
The present invention is explained in detail by mentioning clinical cases.

Setting [1] is: case 1, water intake 2 lit./day continued, up to March 2004.

As for `O` [water intake, water], the right hearing entry under setting [1] is given as “within normal range”. For the same compound, the rotatory vertigo entry runs as follows: under setting [1], “no rotatory vertigo was noted”; (case 2, water intake 1.5 lit./day from Feb. 21, 2003 in addition to isosorbide 21 g/dose and difenidol hydrochloride 25 mg/dose on demand) “remitted after May 3, 2003”; (case 3, water intake, up to January 2004, except one attack Mar. 16, 2001) “no rotatory vertigo was recognized”; (case 5, water intake 1.5 lit./day) “could not be recognized after Oct. 24, 2002”; (case 8, water intake, during the progress after the initial examination) “No rotatory vertigo could be recognized”. In addition, the “resound or aural fullness (in the right ear)” value (case 2, water intake 1.5 lit./day in addition to isosorbide and difenidol hydrochloride on demand) is “remitted after Aug. 18, 2003”. Where the note is “case 2, water intake 1.5 lit./day in addition to isosorbide and difenidol hydrochloride on demand, to February 2004”, the hearing level entry is “maintained within normal range”. The hearing entry (case 3, water intake, up to January 2004) was “maintained within normal range”. Further, the “hearing of the right low tone” value (case 4, water intake 1.5 lit./day, October 2003 to January 2004) is “maintained improved state”. For the same compound, where the note is “case 5, water intake 1.5 lit./day plus isosorbide 63 g t.d.s. and adenosine triphosphate 300 mg t.d.s for 2 weeks”, the “high frequency sensorineural hearing loss of the left ear” value is given as “improved in Oct. 24, 2002”. In addition, the “low frequency sensorineural hearing loss of the left ear” value is listed as “improved from Nov. 29, 2002” (case 5, water intake 1.5 lit./day plus isosorbide and adenosine triphosphate for 2 weeks); “improved” (case 7, water intake 300 ml before going to sleep in addition to steroid, VB12 and PGE1). Under “case 5, water intake 1.5 lit./day, from Jul. 18, 2003”, the “left hearing compared with right hearing” value is given as “became equal level to the right hearing”. The left ear tinnitus entry (case 5, water intake 1.5 lit./day, to January 2004) is reported as “gradually remitted”. Further, the “rotatory vertiginous attack accompanied by tinnitus” value (case 6, water intake with isosorbide and difenidol hydrochloride on demand, after Dec. 21, 2001 until February 2004) was “no rotary vertiginous attack”. Moreover, the left hearing entry (case 7, water intake continued (1.5 lit./day after September 2002), until now) is “maintained the improved state”. Further, the “right hearing level lower as compared with the left hearing level in all frequency range” value (case 8, water intake, at present, 2 -25 dB at initial examination) was 5 -15 dB. In addition, the “outcome of most of patients with Meniere's disease” value (water intake method in combination with short-term isosorbide) is reported as “improved without re-attack for 1-2 years”.

(Values after patent US20060003016A1, “Therapeutic method for endolymphatic hydrops associated diseases” (priority 2004, published 2006).)
